{
  "source": "ChEMBL document CHEMBL6109145",
  "about": "“Indolizine Derivatives Inhibit TRPM2 and Protect against Ischemic Brain Injury with an Extended Treatment Window” (J Med Chem, 2025)",
  "key": {"[1]": {"biological_target": "Transient receptor potential cation channel subfamily M member 2 (Homo sapiens, UniProt O94759)", "sequence (O94759 whole entry)": "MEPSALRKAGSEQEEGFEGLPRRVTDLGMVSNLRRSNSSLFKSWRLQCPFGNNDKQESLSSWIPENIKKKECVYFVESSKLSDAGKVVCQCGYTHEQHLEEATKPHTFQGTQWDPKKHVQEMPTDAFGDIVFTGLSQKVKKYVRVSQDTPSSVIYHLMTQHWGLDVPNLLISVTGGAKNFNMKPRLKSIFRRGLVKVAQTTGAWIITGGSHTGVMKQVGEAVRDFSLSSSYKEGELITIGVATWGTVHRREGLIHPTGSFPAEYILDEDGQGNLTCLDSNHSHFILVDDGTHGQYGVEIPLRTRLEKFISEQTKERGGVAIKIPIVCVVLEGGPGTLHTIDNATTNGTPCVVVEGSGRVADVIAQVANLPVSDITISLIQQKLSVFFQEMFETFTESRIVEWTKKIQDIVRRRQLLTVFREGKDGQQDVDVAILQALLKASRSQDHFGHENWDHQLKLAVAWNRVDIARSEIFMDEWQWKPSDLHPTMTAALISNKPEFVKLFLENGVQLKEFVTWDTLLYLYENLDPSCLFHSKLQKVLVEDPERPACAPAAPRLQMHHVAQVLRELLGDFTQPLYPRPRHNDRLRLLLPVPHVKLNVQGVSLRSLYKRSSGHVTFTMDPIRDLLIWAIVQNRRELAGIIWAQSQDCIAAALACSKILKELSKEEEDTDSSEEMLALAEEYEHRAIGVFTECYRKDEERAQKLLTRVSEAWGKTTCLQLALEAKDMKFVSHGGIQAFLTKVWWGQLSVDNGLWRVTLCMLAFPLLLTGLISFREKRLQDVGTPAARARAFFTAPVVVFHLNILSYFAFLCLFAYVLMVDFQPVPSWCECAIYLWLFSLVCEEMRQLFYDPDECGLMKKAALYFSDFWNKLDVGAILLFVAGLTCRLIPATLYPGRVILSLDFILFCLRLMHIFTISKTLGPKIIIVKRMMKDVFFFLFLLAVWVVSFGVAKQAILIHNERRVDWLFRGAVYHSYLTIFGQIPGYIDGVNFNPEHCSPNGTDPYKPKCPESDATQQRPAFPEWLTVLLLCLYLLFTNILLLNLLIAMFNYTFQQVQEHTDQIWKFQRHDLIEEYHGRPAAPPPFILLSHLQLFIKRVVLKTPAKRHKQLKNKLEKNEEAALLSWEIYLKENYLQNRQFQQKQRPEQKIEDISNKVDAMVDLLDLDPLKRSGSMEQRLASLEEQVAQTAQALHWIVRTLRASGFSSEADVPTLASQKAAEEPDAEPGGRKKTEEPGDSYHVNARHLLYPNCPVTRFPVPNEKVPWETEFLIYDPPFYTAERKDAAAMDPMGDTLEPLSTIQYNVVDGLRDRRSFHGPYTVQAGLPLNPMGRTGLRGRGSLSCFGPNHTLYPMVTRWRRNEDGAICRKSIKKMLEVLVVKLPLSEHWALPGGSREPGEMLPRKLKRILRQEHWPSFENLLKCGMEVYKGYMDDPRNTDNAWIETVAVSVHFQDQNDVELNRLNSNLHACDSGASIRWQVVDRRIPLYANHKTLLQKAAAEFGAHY", "test": "Inhibition of TRPM2 channel (unknown origin) in doxycycline-inducible human HEK-293T cells assessed as inhibition of ADPR activated current by measuring inhibition rate at +80 mV to -80 mV at 1 uM by whole-cell patch clamp electrophysiology relative to control", "format": "cell-based"}, "[2]": {"test": "AUC (0 to infinitive) in mouse at 20 mg/kg, IG administered single dose", "format": "ADME, organism-based", "details": "in vivo, po"}, "[3]": {"system": "Mus musculus", "test": "Neuroprotective effect against transient middle cerebral artery occlusion (tMCAO) mouse model assessed as infarct volume in TTC-stained brain slices at 3 mg/kg, iv administered 3 hrs after reperfusion (reference value: 59 +/- 2.4%)", "format": "functional"}, "[4]": {"test": "Oral bioavailability in mouse at 20 mg/kg, IG administered single dose", "format": "ADME, organism-based", "details": "in vivo"}, "[5]": {"test": "AUC (0 to t) in mouse at 20 mg/kg, IG administered single dose", "format": "ADME, organism-based", "details": "in vivo, po"}, "[6]": {"test": "Half life in mouse at 1 mg/kg, iv administered single dose", "format": "ADME, organism-based", "details": "in vivo"}, "[7]": {"test": "Tmax in mouse at 100 mg/kg, IG administered single dose", "format": "ADME, organism-based", "details": "in vivo, po"}, "[8]": {"test": "AUC (0 to t) in mouse at 100 mg/kg, IG administered single dose", "format": "ADME, organism-based", "details": "in vivo, po"}, "[9]": {"test": "MRT in mouse at 20 mg/kg, IG administered single dose", "format": "ADME, organism-based", "details": "in vivo, po"}, "[10]": {"test": "Cmax in mouse at 20 mg/kg, IG administered single dose", "format": "ADME, organism-based", "details": "in vivo, po"}, "[11]": {"test": "MRT in mouse at 100 mg/kg, IG administered single dose", "format": "ADME, organism-based", "details": "in vivo, po"}, "[12]": {"test": "MRT in mouse at 1 mg/kg, iv administered single dose", "format": "ADME, organism-based", "details": "in vivo"}, "[13]": {"test": "Tmax in mouse at 1 mg/kg, iv administered single dose", "format": "ADME, organism-based", "details": "in vivo"}, "[14]": {"system": "Mus musculus", "test": "Neuroprotective effect against transient middle cerebral artery occlusion (tMCAO) mouse model assessed as infarct volume in TTC-stained brain slices at 1 mg/kg, iv administered 3 hrs after reperfusion (reference value: 59 +/- 2.4%)", "format": "functional"}, "[15]": {"test": "Half life in mouse at 20 mg/kg, IG administered single dose", "format": "ADME, organism-based", "details": "in vivo, po"}, "[16]": {"test": "Half life in mouse at 100 mg/kg, IG administered single dose", "format": "ADME, organism-based", "details": "in vivo, po"}, "[17]": {"system": "Mus musculus", "test": "Neuroprotective effect against transient middle cerebral artery occlusion (tMCAO) mouse model assessed as infarct volume in TTC-stained brain slices at 0.3 mg/kg, iv administered 3 hrs after reperfusion (reference value: 59 +/- 2.4%)", "format": "functional"}, "[18]": {"test": "Cmax in mouse at 1 mg/kg, iv administered single dose", "format": "ADME, organism-based", "details": "in vivo"}, "[19]": {"test": "Tmax in mouse at 20 mg/kg, IG administered single dose", "format": "ADME, organism-based", "details": "in vivo, po"}, "[20]": {"test": "AUC (0 to infinitive) in mouse at 1 mg/kg, iv administered single dose", "format": "ADME, organism-based", "details": "in vivo"}, "[21]": {"test": "AUC (0 to t) in mouse at 1 mg/kg, iv administered single dose", "format": "ADME, organism-based", "details": "in vivo"}, "[22]": {"test": "Cmax in mouse at 100 mg/kg, IG administered single dose", "format": "ADME, organism-based", "details": "in vivo, po"}, "[23]": {"system": "Mus musculus", "test": "Neuroprotective effect against transient middle cerebral artery occlusion (tMCAO) mouse model assessed as infarct volume in TTC-stained brain slices at 3 mg/kg, iv administered 24 hrs after reperfusion (reference value: 4.3 +/- 0.3%)", "format": "functional"}, "[24]": {"test": "Clearance in mouse at 1 mg/kg, iv administered single dose", "format": "ADME, organism-based", "details": "in vivo"}, "[25]": {"test": "Oral bioavailability in mouse at 100 mg/kg, IG administered single dose", "format": "ADME, organism-based", "details": "in vivo"}, "[26]": {"test": "AUC (0 to infinity) in mouse at 100 mg/kg, IG administered single dose", "format": "ADME, organism-based", "details": "in vivo, po"}, "[27]": {"system": "Mus musculus", "test": "Neuroprotective effect against transient middle cerebral artery occlusion (tMCAO) (60 mins ischemia/24 hrs reperfusion) mouse model assessed as infarct volume in TTC-stained brain slices at 3 mg/kg, iv once daily for 7 days (reference value: 39.6 +/- 1.3%)", "format": "functional", "details": "1 h"}, "[28]": {"system": "Mus musculus", "test": "Neuroprotective effect against transient middle cerebral artery occlusion (tMCAO) mouse model assessed as infarct volume in TTC-stained brain slices at 1 mg/kg, iv administered 24 hrs after reperfusion (reference value: 4.3 +/- 0.3%)", "format": "functional"}},
  "data": [
    {"smiles": "O=C(c1ccccc1)c1cc(C(=O)N2CCOCC2)cc2cccn12", "values": [
      {"measurement": "IC50", "setting": "[1]", "result": 2.89, "unit": "µM"}
    ]},
    {"smiles": "CCN(CC)C(=O)c1cc(C(=O)c2ccccc2)n2cccc2c1", "values": [
      {"measurement": "AUC", "setting": "[2]", "result": 2410, "unit": "ng·h/mL"},
      {"measurement": "Activity", "setting": "[3]", "result": 30.7, "unit": "%"},
      {"measurement": "bioavailability", "setting": "[4]", "result": 50, "unit": "%"},
      {"measurement": "AUC(0-t)", "setting": "[5]", "result": 2200, "unit": "ng·h/mL"},
      {"measurement": "half-life", "setting": "[6]", "result": 0.86, "unit": "h"},
      {"measurement": "Tmax", "setting": "[7]", "result": 1.1, "unit": "h"},
      {"measurement": "AUC(0-t)", "setting": "[8]", "result": 10600, "unit": "ng·h/mL"},
      {"measurement": "MRT", "setting": "[9]", "result": 2.65, "unit": "h"},
      {"measurement": "Cmax", "setting": "[10]", "result": 330, "unit": "ng/mL"},
      {"measurement": "MRT", "setting": "[11]", "result": 3.16, "unit": "h"},
      {"measurement": "MRT", "setting": "[12]", "result": 1.24, "unit": "h"},
      {"measurement": "Tmax", "setting": "[13]", "result": 5.4, "unit": "min"},
      {"measurement": "Activity", "setting": "[14]", "result": 39.4, "unit": "%"},
      {"measurement": "half-life", "setting": "[15]", "result": 2.62, "unit": "h"},
      {"measurement": "half-life", "setting": "[16]", "result": 2.83, "unit": "h"},
      {"measurement": "Activity", "setting": "[17]", "result": 51.5, "unit": "%"},
      {"measurement": "Cmax", "setting": "[18]", "result": 260, "unit": "ng/mL"},
      {"measurement": "Tmax", "setting": "[19]", "result": 0.83, "unit": "h"},
      {"measurement": "AUC(0-inf)", "setting": "[20]", "result": 220, "unit": "ng·h/mL"},
      {"measurement": "AUC(0-t)", "setting": "[21]", "result": 220, "unit": "ng·h/mL"},
      {"measurement": "IC50", "setting": "[1]", "result": 2.29, "unit": "µM"},
      {"measurement": "Cmax", "setting": "[22]", "result": 1520, "unit": "ng/mL"},
      {"measurement": "Activity", "setting": "[23]", "result": 2.3, "unit": "%"},
      {"measurement": "clearance", "setting": "[24]", "result": 75.8, "unit": "mL/min/kg"},
      {"measurement": "bioavailability", "setting": "[25]", "result": 48.2, "unit": "%"},
      {"measurement": "AUC", "setting": "[26]", "result": 11740, "unit": "ng·h/mL"},
      {"measurement": "Activity", "setting": "[27]", "result": 23.4, "unit": "%"}
    ]},
    {"smiles": "O=C(c1ccccc1)c1cc(C(=O)N2CCCC2)cc2cccn12", "values": [
      {"measurement": "IC50", "setting": "[1]", "result": 3.08, "unit": "µM"}
    ]},
    {"smiles": "O=C(c1ccccc1)c1cc(C(=O)N2CCCCC2)cc2cccn12", "values": [
      {"measurement": "IC50", "setting": "[1]", "result": 2.8, "unit": "µM"}
    ]},
    {"smiles": "CC1=NN(c2ccccc2)C(=O)C1", "note": "[EDARAVONE]", "values": [
      {"measurement": "Activity", "setting": "[3]", "result": 40.6, "unit": "%"},
      {"measurement": "Activity", "setting": "[23]", "result": 3, "unit": "%"},
      {"measurement": "Activity", "setting": "[28]", "result": 2.8, "unit": "%"},
      {"measurement": "Activity", "setting": "[27]", "result": 38.9, "unit": "%"}
    ]}
  ]
}
